One experiment has as its system effector CD4 T cells. Put plainly: CFSE proliferation assay of mouse effector CD4 T cells. It is filed as cell-based. The settings on record: effector CD4 T cells stimulated with anti-CD3/28 and drug(s), FIG. 12B. How it is done:
Proliferation and cell division assays. Cells cultured in 96-well U-bottom plate wells were pulsed with 1 μCi of methyl-[^3H]thymidine (Amersham Biosciences) for 6 h during the last 72 h of stimulation and harvested onto filters (Wallac). Filters were wetted with Betaplate Scintillation fluid (PerkinElmer) and counts per minute read on a 1205 Betaplate Liquid Scintillation Counter (Wallac). For CFSE experiments, cells were labeled with 1 μM CFDA-SE (Sigma-Aldrich) in serum free RPMI 1640 medium for 10 min and washed twice before culturing. CFSE-labeled cells were assayed after 72 h of culture.
GRAIL is expressed during quiescence, lost upon activation. Naïve CD4 T cells were isolated from mouse and stimulated with anti-CD3 and anti-CD28 antibodies in vitro for the indicated number of hours (FIG. 10). Protein was collected and run by Western blot probing for GRAIL and β-actin. Effector CD4 T cells were made by first isolating from naïve mice, then stimulating with anti-CD3/28 for 3 days, split off and rested for 2 more days, then washed and put in fresh media for 2 additional days. Live CD4 T cells were then collected, shown to be at rest, and then activated in the same manner as described above. Protein samples were isolated and probed with anti-GRAII antibody as described in Example 1.
Shown in FIG. 12A, naïve CD4 T cells were labeled with CFSE, a dye that dilutes out with successive cell divisions. The naïve CD4 T cells were stimulated with anti-CD3/28 and the indicated drug(s) and CFSE profiles assessed after 3 days. […] A similar experiment was performed with effector CD4 T cells, prepared as described above.

The subject of the next experiment is mouse naive CD4 T cells. Kind of experiment: CFSE cell division assay of mouse naive CD4 T cells. It is filed as cell-based. Conditions: anti-CD3/28 stimulation, CFSE profiles after 3 days.
A further experiment relates to GRAIL. Kind of experiment: GRAIL western blot of effector CD4 T cells. Type of experiment: cell-based, mouse. Conditions: effector CD4 T cells stimulated with anti-CD3/28, western blot, FIG. 12C. On the procedure: Immunoblots. Whole-cell lysates were made using lysis buffer consisting of 0.5% Nonidet P-40, 100 mM sodium chloride, 0.5 mM EDTA, 20 mM Tris (pH 7.6-8.0), with protease inhibitor mixture (Pierce) and phosphatase inhibitor mixture (Pierce). Protein samples were loaded on 4-15% Tris-HCl gels (Bio-Rad) and separated by SDS-PAGE. Protein was transferred from gel to Immobolin-P polyvinylidene difluoride membrane (Millipore) using Trans-Blot SD Semidry Transfer Apparatus (Bio-Rad) following the manufacturer's instructions. StartingBlock (Tris-buffered saline with 0.05% Tween 20) (Pierce) was used to block membranes and was also used during primary and secondary Ab staining. Secondary Abs were all HRP conjugated (Zymed Laboratories). ECL Plus Western Blotting Reagents (GE Healthcare) were used for chemiluminescent detection of protein. Chemiluminescence signal was exposed onto Amersham Hyperfilm ECL (GE Healthcare). Membranes were stripped using Restore Western Blot Stripping Buffer (Pierce). Densitometry was performed using ImageJ software (National Institutes of Health). […]
(Immunoblotting shows a protein as a band on a membrane.)

Excerpt for mouse naive CD4 T cells: Isolation and stimulation of mouse CD4 T cells. Spleen and lymph nodes were harvested from naive mice and homogenized through a strainer. RBC were lysed from the suspension using red blood cell lysing buffer (Sigma-Aldrich). Lymphocytes were isolated by density centrifugation using Lympholyte-M (Cedarlane Laboratories). CD4+ T cells were sorted via negative selection using an AutoMACS sorter (Miltenyi Biotec). BALB/c CD4+ T cells (5×103) were stimulated in 96-well U-bottom plates with equal numbers of polystyrene latex beads (Interfacial Dynamics) coated with 1.0 μg/ml anti-CD3 (145-2C11; eBioscience) and 0.5 μg/ml anti-CD28 (37.51; eBioscience). […] Anti-IL-2 Ab (JES6-1A12; eBioscience) was used at a concentration of 10 μg/ml. Cells were cultured in RPMI 1640 medium (Life Technologies) supplemented with 10% heat-inactivated FCS (Mediatech), 100 nM sodium pyruvate (Life Technologies), 2 mM L-glutamine (Life Technologies), 100 nM nonessential amino acids (Life Technologies), 100 U/ml penicillin/streptomycin (Life Technologies), and 5 nM 2-ME (Sigma-Aldrich). […]

For the compound `N#CC(=C(/N)Sc1ccccc1N)/C(C#N)=C(\N)Sc1ccccc1N` [U0126], the “proliferation of effector CD4 T cells (CFSE)” value (“proliferation … (CFSE)” below) in the experiment on effector CD4 T cells is reported as “does not inhibit proliferation”. Also, the “cell division / proliferation by CFSE dilution” value with mouse naive CD4 T cells was “inhibits proliferation”. Further, the “GRAIL retention in effector CD4 T cells” value with GRAIL is listed as “does not lead to GRAIL retention”.

With `O=C(NOCC(O)CO)c1ccc(F)c(F)c1Nc1ccc(I)cc1F` (centres unmarked) [PD0325901, N-(2,3-dihydroxypropoxy)-3,4-difluoro-2-(2-fluoro-4-iodophenylamino)benzamide], the “proliferation … (CFSE)” value in the experiment with effector CD4 T cells is “does not work alone”.

As for `CC(=O)O[C@@H]1[C@@H](OC(C)=O)[C@@H](O)[C@H](Oc2c(-c3ccc(O)cc3)oc3cc(O)cc(O)c3c2=O)O[C@H]1C` [SL0101], the “proliferation … (CFSE)” value with effector CD4 T cells was “does not work alone”.
